Patent US9695155B2, “Herbicidal substituted pyrimidinyloxy benzene compounds” (E. I. DU PONT DE NEMOURS AND COMPANY, priority 2013, dated 2017)

Legend:
wheat = assay: Test A postemergence; format: in vivo, Triticum aestivum; settings: Triticum aestivum, post-emergence, 240 h, 0 to 100 scale where 0 is no effect and 100 is complete control
Procedure, shortened: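 Visual injury scored 0–100 (100 = complete control) against untreated controls about 10 days after treatment in a greenhouse. Test chemicals, formulated with surfactant in non-phytotoxic solvent, were sprayed on soil preemergence or on 2-10 cm, one- to two-leaf plants postemergence.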

sedge, umbrella = assay: Test B flooded paddy test; format: in vivo, Cyperus difformis; settings: Cyperus difformis, Flood, 250 g ai/ha; 0 to 100 scale where 0 is no effect and 100 is complete control; read-out: Plant response rating, Sedge, Umbrella
Procedure, shortened: (§1)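 Greenhouse flooded-pot test: compounds dosed into 3 cm standing water over 2-leaf plants, flood held constant. Rated visually after 13–15 days on 0–100 (complete control = 100); a dash marks no test result.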

Heteranthera limosa = assay: Test B flooded paddy test; format: in vivo; settings: Heteranthera limosa, Flood, 250 g ai/ha; 0 to 100 scale where 0 is no effect and 100 is complete control; read-out: Plant response rating, Ducksalad
Procedure, shortened: as §1

blackgrass = assay: Test C preemergence; format: in vivo, Alopecurus myosuroides; settings: Alopecurus myosuroides, pre-emergence
Procedure, shortened: (§2)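 Sown in loam/sand → sprayed pre-emergence; or grown to 1–4 leaves in peat mix → sprayed post-emergence. Same solvent/surfactant formulation both ways. Greenhouse 13–15 d. Score 0–100 visual.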

Italian ryegrass = assay: Test C preemergence; format: in vivo, Lolium multiflorum; settings: Lolium multiflorum, pre-emergence
Procedure, shortened: as §2

wheat, winter = assay: Test C preemergence; format: in vivo, Triticum aestivum; settings: Triticum aestivum, pre-emergence
Procedure, shortened: as §2

johnsongrass = assay: Test C preemergence; format: in vivo, Sorghum halepense; settings: Sorghum halepense, pre-emergence
Procedure, shortened: as §2

ragweed = assay: Test C preemergence; format: in vivo, Ambrosia elatior; settings: Ambrosia artemisiifolia, pre-emergence
Procedure, shortened: as §2

velvetleaf = assay: Test C preemergence; format: in vivo, Abutilon theophrasti; settings: Abutilon theophrasti, pre-emergence
Procedure, shortened: as §2

pigweed = assay: Test C postemergence; format: in vivo, Amaranthus retroflexus; settings: Amaranthus retroflexus, post-emergence
Procedure, shortened: as §2

waterhemp = assay: Test C postemergence; format: in vivo, Amaranthus rudis; settings: Amaranthus tuberculatus, post-emergence
Procedure, shortened: as §2

Compound `FC(F)(F)Sc1cnn(-c2ccccc2Oc2ncc(Cl)cn2)c1` [Compound 132, 5-chloro-2-[2-[4-(trifluoromethylthio)-1H-pyrazol-1-yl]phenoxy]pyrimidine] has a plant injury at 125 g/ha (wheat; 125 g ai/ha, read-out: Wheat plant response rating) of 0%, a plant injury at 500 g/ha (wheat; 500 g ai/ha, read-out: Plant response rating, Wheat) of 60% and a pest or weed control at 250 g/ha (sedge, umbrella) of 0%. The pest or weed control at 250 g/ha (Heteranthera limosa) was 0%, the pest or weed control at 16 g/ha (blackgrass; 16 g ai/ha, preemergence, scale 0 to 100 (0 no effect, 100 complete control), read-out: Blackgrass plant response rating) was 0% and the pest or weed control at 62 g/ha (blackgrass; 62 g ai/ha, preemergence, scale 0 (no effect) to 100 (complete control), read-out: Blackgrass plant response rating) was 40%. For the same compound, the pest or weed control at 125 g/ha (blackgrass; 125 g ai/ha, preemergence, scale 0 (no effect) to 100 (complete control), read-out: Blackgrass plant response rating) was 95%, the pest or weed control at 31 g/ha (blackgrass; Preemergence, 31 g ai/ha, scale 0 to 100, 0 no effect, 100 complete control, read-out: Plant response rating, Blackgrass) was 5% and the pest or weed control at 16 g/ha (Italian ryegrass; 16 g ai/ha, preemergence, scale 0 to 100 (0 no effect, 100 complete control), read-out: Ryegrass, Italian plant response rating) was 0%. For the same compound, the pest or weed control at 62 g/ha (Italian ryegrass; 62 g ai/ha, preemergence, scale 0 (no effect) to 100 (complete control), read-out: Ryegrass, Italian plant response rating) was 5%, the pest or weed control at 125 g/ha (Italian ryegrass; 125 g ai/ha, preemergence, scale 0 (no effect) to 100 (complete control), read-out: Ryegrass, Italian plant response rating) was 30% and the pest or weed control at 31 g/ha (Italian ryegrass; Preemergence, 31 g ai/ha, scale 0 to 100, 0 no effect, 100 complete control, read-out: Plant response rating, Ryegrass, Italian) was 0%. It also gave a plant injury at 16 g/ha (wheat, winter; 16 g ai/ha, preemergence, scale 0 to 100 (0 no effect, 100 complete control), read-out: Wheat plant response rating) of 0%, a plant injury at 62 g/ha (wheat, winter; 62 g ai/ha, preemergence, scale 0 (no effect) to 100 (complete control), read-out: Wheat plant response rating) of 0% and a plant injury at 125 g/ha (wheat, winter; 125 g ai/ha, preemergence, scale 0 (no effect) to 100 (complete control), read-out: Wheat plant response rating) of 0%. It also gave a plant injury at 31 g/ha (wheat, winter; Preemergence, 31 g ai/ha, scale 0 to 100, 0 no effect, 100 complete control, read-out: Plant response rating, Wheat) of 0%, a pest or weed control at 16 g/ha (johnsongrass; 16 g ai/ha, preemergence, scale 0 to 100 (0 no effect, 100 complete control), read-out: Johnsongrass plant response rating) of 0% and a pest or weed control at 62 g/ha (johnsongrass; 62 g ai/ha, preemergence, scale 0 (no effect) to 100 (complete control), read-out: Johnsongrass plant response rating) of 0%. The pest or weed control at 125 g/ha (johnsongrass; 125 g ai/ha, preemergence, scale 0 (no effect) to 100 (complete control), read-out: Johnsongrass plant response rating) was 35%, the pest or weed control at 31 g/ha (johnsongrass; Preemergence, 31 g ai/ha, scale 0 to 100, 0 no effect, 100 complete control, read-out: Plant response rating, Johnsongrass) was 0% and the pest or weed control at 16 g/ha (ragweed; 16 g ai/ha, preemergence, scale 0 to 100 (0 no effect, 100 complete control), read-out: Ragweed plant response rating) was 10%. It also gave a pest or weed control at 62 g/ha (ragweed; 62 g ai/ha, preemergence, scale 0 (no effect) to 100 (complete control), read-out: Ragweed plant response rating) of 40%, a pest or weed control at 125 g/ha (ragweed; 125 g ai/ha, preemergence, scale 0 (no effect) to 100 (complete control), read-out: Ragweed plant response rating) of 30% and a pest or weed control at 31 g/ha (ragweed; Preemergence, 31 g ai/ha, scale 0 to 100, 0 no effect, 100 complete control, read-out: Plant response rating, Ragweed) of 10%. It also gave a pest or weed control at 16 g/ha (velvetleaf; 16 g ai/ha, preemergence, scale 0 to 100 (0 no effect, 100 complete control), read-out: Velvetleaf plant response rating) of 75%, a pest or weed control at 62 g/ha (velvetleaf; 62 g ai/ha, preemergence, scale 0 (no effect) to 100 (complete control), read-out: Velvetleaf plant response rating) of 100% and a pest or weed control at 125 g/ha (velvetleaf; 125 g ai/ha, preemergence, scale 0 (no effect) to 100 (complete control), read-out: Velvetleaf plant response rating) of 100%. For the same compound, the pest or weed control at 31 g/ha (velvetleaf; Preemergence, 31 g ai/ha, scale 0 to 100, 0 no effect, 100 complete control, read-out: Plant response rating, Velvetleaf) was 85%, the pest or weed control at 16 g/ha (pigweed; 16 g ai/ha, postemergence, 0 is no effect, 100 is complete control, read-out: Plant response rating (0 to 100), Pigweed) was 25% and the pest or weed control at 125 g/ha (pigweed; 125 g ai/ha, postemergence, visual rating, scale 0 to 100 (0 no effect, 100 complete control), read-out: Plant response rating, Pigweed) was 80%. The pest or weed control at 62 g/ha (pigweed; Postemergence, 62 g ai/ha, scale 0 to 100 (0 no effect, 100 complete control), read-out: Plant response rating, Pigweed) was 75%, the pest or weed control at 16 g/ha (waterhemp; 16 g ai/ha, postemergence, 0 is no effect, 100 is complete control, read-out: Plant response rating (0 to 100), Waterhemp) was 45% and the pest or weed control at 125 g/ha (waterhemp; 125 g ai/ha, postemergence, visual rating, scale 0 to 100 (0 no effect, 100 complete control), read-out: Plant response rating, Waterhemp) was 75%. For the same compound, the pest or weed control at 62 g/ha (waterhemp; Postemergence, 62 g ai/ha, scale 0 to 100 (0 no effect, 100 complete control), read-out: Plant response rating, Waterhemp) was 65%.
